Laboratory results published in US20210029993A1, “SPATIAL INHIBITORS, DETERRENTS AND REPELLENTS FOR MOSQUITOES AND MIDGES” (BEDOUKIAN RESEARCH, INC., priority 2005, published 2021).

What was measured:
Format in all cases: in vivo
[1] = system: mosquitoes; assay: Spatial inhibition of mosquitoes, outdoor Mosquito Magnet Liberty Plus trap catch; conditions: control trap = 100% catch, lower = more inhibition
Protocol: Two grams of test compound was absorbed onto pieces of absorbent material. These pieces of absorbent material (fragrance release material from Rhopore Inc.) containing absorbed test compound were then placed in a stream of CO2 and r-octenol being released from an American Biophysics Mosquito Magnet Liberty Plus mosquito trap designed to attract mosquitoes. The test were rotated over a period of 2-5 days in such a manner that both control (trap without test compound) and test compound were tested an equal number of times in each trap employed. The number of mosquitoes caught in the traps with test compounds was compared to the number of mosquitoes caught in the trap with no test compound material present. […] Thus, a lowered percentage is indicative of the increasing ability of the test compounds to inhibit the ability of the mosquitoes sense the target. […] In Table 3, weight percent (wt %) refers to the weight of the deterring/repelling/inhibiting compound, or combination of compounds, in the composition used in the tests. In the “Percent Caught Relative to Control” column in Table 3, a lower percentage is indicative of the increasing ability of the test compounds to inhibit the ability of the mosquitoes sense the target. The weight ratio of the compounds in the combination of compounds is given in parentheses in the “Compound(s)” column of Table 3.

[2] = system: female mosquitoes (Aedes aegypti); assay: Mosquitoes flying test (Plexiglas module, mosquitoes flying within the apparatus); conditions: for Flying Relative To Control: control = 1, higher = more inhibitor activity; for spatial inhibitor activity for mosquitoes (flying tests, FIGS. 2 and 4), in words: flying relative to control
Protocol: The test was conducted at 0900-2100 hours in a walk-in incubator (26° C., 63-80% RH) illuminated by fluorescent lights. Mosquitoes were tested in a two-piece Plexiglas module designed to assess their response to feeding deterrents. The bottom piece of the module was 40×7×4-cm hollow platform supporting six circular wells (diameter=3.8 cm, depth=6 mm). Water (40° C.) flowed through the central cavity of the platform at a rate of 215 ml/min. The top piece of the module consisted of six 4.5×4.0×5.0 cm chambers, the floors of which were fitted with a sliding door positioned over a circular opening 3.5 cm in diameter. Mosquitoes were introduced through an aperture 1 cm in diameter on the front wall of the chambers. For each test, five female mosquitoes (Aedes aegypti) were aspirated into each of five chambers of the top module piece and the apertures were plugged with corks wrapped in plastic film. The wells on the bottom piece of the module were filled with 7 ml of 10% sucrose solution containing ATP (2.9 mg/ml). To each well, 75 μl of green dye (McCormick Food, Hunt Valley, Md.) were added so that those mosquitoes imbibing the sugar solution could be identified when crushed at the end of the tests. Each membrane received 50 ul of acetone or experimental compound solution, applied to 9.6 cm^2 circular area on 0.1 mm-thick membranes made of nylon mesh in a silicone matrix. The membranes were then placed over each well in contact with the sugar solution.
The circular openings on the floor of each chamber of the top piece of the module were aligned with each membrane-covered well of the bottom piece. The sliding floors of the chambers were then opened allowing mosquitoes access to the membranes. The number of mosquitoes landing on the membranes, and those flying within the apparatus, were recorded each minute for five minutes. After five minutes, any mosquitoes remaining on the membranes were removed with a metal wire, and the door of the floor of each chamber was closed. The top piece of the module was then placed into a freezer for 20 minutes. In the test designed to assess feeding, mosquitoes were removed from the frozen module, crushed on white paper towels, and examined for the presence of green dye to indicate that feeding had occurred. The proportions of mosquitoes feeding per trial were analyzed using a standard generalized linear model with a logit link. Landing and flying scores are repeated measures; five reading were obtained for groups of five mosquitoes. Thus, to maintain independence among the data, the five readings were summed, and then the sums divided by 25 (the maximum score in each category) to create proportions of mosquitoes landing and flying. The proportions were then transferred using the standard variance stabilizing transformation for proportions (sin^−1 √y, where y is the proportion), and analyzed using ANOVA (Analysis of Variables)
In Table 2, weight percent (wt %) refers to the weight of the deterring/repelling/inhibiting compound, or combination of compounds, in the composition used in the tests. […] The weight ratio of the compounds in the combination of compounds is given in parentheses in the “Compound(s)” column of Table 2.

[3] = system: female biting midges (Culicoides impunctatus); assay: Biting midges flying test (Plexiglas module); conditions: control = 1, higher = more inhibitor activity
Protocol: The following tests are employed to illustrate the efficacy of the compounds of this disclosure to effectively act as biting midge deterrents, repellents or as spatial inhibitors for biting midges. […] Biting midges are tested in a two-piece Plexiglas module designed to assess their response to feeding deterrents. […] Water (40° C.) flows through the central cavity of the platform at a rate of 215 ml/min. The top piece of the module consists of six 4.5×4.0×5.0 cm chambers, the floors of which are fitted with a sliding door positioned over a circular opening 3.5 cm in diameter. Biting midges are introduced through an aperture 1 cm in diameter on the front wall of the chambers. For each test, five female biting midges (Culicoides impunctatus) are aspirated into each of five chambers of the top module piece and the apertures are plugged with corks wrapped in plastic film. […] To each well, 77.5 μl of green dye (McCormick Food, Hunt Valley, Md.) are added so that those biting midges imbibing the sugar solution can be identified when crushed at the end of the tests. Each membrane receives 50 μl of acetone or experimental compound solution, applied to 9.6 cm^2 circular area on 0.1 mm-thick membranes made of nylon mesh in a silicone matrix. The membranes are then placed over each well in contact with the sugar solution. The circular openings on the floor of each chamber of the top piece of the module are aligned with each membrane-covered well of the bottom piece. The sliding floors of the chambers are then opened allowing biting midges access to the membranes. The number of biting midges landing on the membranes, and those flying within the apparatus, are recorded each minute for five minutes. After five minutes, any biting midges remaining on the membranes are removed with a metal wire, and the door of the floor of each chamber is closed. The top piece of the module is then placed into a freezer for 20 minutes. In the test designed to assess feeding, biting midges are removed from the frozen module, crushed on white paper towels, and examined for the presence of green dye to indicate that feeding had occurred. The proportions of biting midges feeding per trial are analyzed using a standard generalized linear model with a logit link. Landing and flying scores are repeated measures; five readings are obtained for groups of five biting midges. Thus, to maintain independence among the data, the five readings are summed, and then the sums divided by 25 (the maximum score in each category) to create proportions of biting midges landing and flying. The proportions are then transferred using the standard variance stabilizing transformation for proportions (sin^−1 √y, where y is the proportion), and analyzed using ANOVA (Analysis of Variables). In Table 5, weight percent (wt %) refers to the weight of the deterring/repelling/inhibiting compound, or combination of compounds, in the composition used in the tests. […] The weight ratio of the compounds in the combination of compounds is given in parentheses in the “Compound(s)” column of Table 5.

[4] = 95 wt % compound(s) in composition
[5] = 87.5 wt % compound(s) in composition

Row | SMILES | Percent Caught Relative To Control [1, 4] | Flying Relative To Control [2, 4] | spatial inhibitor activity for mosquitoes (flying tests, FIGS. 2 and 4), in words [2] | Flying Relative To Control [3, 4] | Percent Caught Relative To Control [1, 5] | Flying Relative To Control [2, 5] | Flying Relative To Control [3, 5]
1 | C=CC(C)(CCC=C(C)C)OC(C)=O (centres unmarked) [Linaloyl acetate] | 15% | 1.3 | particularly effective as spatial inhibitors for mosquitoes | 1.2 | – | – | –
2 | CC(C)=CCCC(C)CCO (centres unmarked) [Citronellol] | – | – | particularly effective as spatial inhibitors for mosquitoes | – | 12% | 1.55 | 1.5
